According to patent US20260306639A1, “DEGRADER FOR DECOMPOSING CMET PROTEIN, AND PHARMACEUTICAL COMPOSITION COMPRISING SAME” (INNOCURE THERAPEUTICS, INC., priority 2022, published 2026):

Experiments:
SNU-638 = assay: cell viability / antiproliferative activity (WST-8), SNU-638 cells; format: cell-based, human; settings: SNU-638 gastric cancer cells, 72 hours
Method: (§2) c-MET overexpressing human gastric cancer cell lines [MKN45] and [SNU638] were cultured in RPMI medium with 10% fetal bovine serum, penicillin (100 U/ml), and streptomycin (100 mg/ml), and c-MET exon 14 skipping mutant human gastric cancer cell lines [Hs746T] were cultured in DMEM media. The c-MET overexpressing human lung cancer cell line EBC-1 was cultured in MEM media with the addition of 10% fetal bovine serum, penicillin (100 U/ml), and streptomycin (100 mg/ml). […] The compound synthesized in accordance with the present invention was prepared with a raw material solution of 10 mM dissolved in DMSO (dimethyl sulfoxide), and was sequentially diluted and processed.
(§3) In order to observe the inhibitory activity on cell growth, cells were dispensed in a 96-well plate at a concentration of 5,000 cells/well, and then treated with the compound prepared at various concentrations for 72 hours. The viability of the cells was calculated using GraphicPad Prism 8.0 software by adding 10 ml per well of WST-8 (water soluble tetrazolium salt) sample, which reacts with dehydrogenase present in the electron transport system of mitochondria to produce formazon, incubated for 2 hours, and measured absorbance at 450 nm.

c-MET [1] = assay: c-MET protein degradation (Simple Western), EBC-1 cells; format: cell-based, human; settings: EBC-1 lung cancer cells, c-MET overexpressing; 48 hours
Method: (§1) In order to assess the resolution of the compound of the present invention for c-MET expressed in cells, cells were dispensed in a 12-well plate at a concentration of 2×10^5 cells/well, and then gastric cancer cell lines were treated with samples for 24 hours and lung cancer cell lines were treated for 48 hours. Cell lysates were collected using a scraper on ice, centrifuged at 4° C. 15,000 rpm for 30 min to obtain a protein-containing supernatant. Protein expression was then measured using the Simple Western Automated Western Blot System Abby instrument using 3 μg of protein for each sample. SDS and heat-induced denaturation proteins were separated by molecular weight, attached to capillary, reacted with anti-c-MET or anti-GAPDH antibodies, which are primary antibodies, and then reacted with HRP-conjugated secondary antibodies, and analyzed the protein expression signal with compass software. Protein expression was normalized based on the expression value of GAPDH, and protein development in each sample was measured as a percentage (%) based on 100% of samples treated with 0.1% DMSO carriers, and DC50 (concentration of a compound where 50% protein inhibition is achieved) was calculated from the change in protein expression amount due to compound treatment.

c-MET [2] = assay: c-MET protein degradation (Simple Western), SNU-638 cells; format: cell-based, human; settings: SNU-638 gastric cancer cells, c-MET overexpressing; 24 hours
Method: as §1

EBC-1 = assay: cell viability / antiproliferative activity (WST-8), EBC-1 cells; format: cell-based, human; settings: EBC-1 lung cancer cells, 72 hours
Method: as §2, §3

c-MET [3] = assay: c-MET protein degradation (Simple Western), MKN-45 cells; format: cell-based, human; settings: MKN-45 gastric cancer cells, c-MET overexpressing; 24 hours
Method in brief: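 Cells at 2×10^5 cells/well exposed to compound for 24 h (gastric lines) or 48 h (lung lines). Lysates (3 μg protein) probed for c-MET by capillary Simple Western, normalized to GAPDH and expressed as % of 0.1% DMSO control. DC50 is the concentration giving 50% protein reduction.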

c-MET [4] = assay: c-MET protein degradation (Simple Western), Hs746T cells; format: cell-based, human; settings: Hs746T gastric cancer cells, c-MET exon 14 skipping mutant; 24 hours
Method: as §1

MKN-45 = assay: cell viability / antiproliferative activity (WST-8), MKN-45 cells; format: cell-based; settings: Homo sapiens; MKN-45 gastric cancer cells; 72 hours
Method: as §2, §3

Compound	DC50 (c-MET [1])	DC50 (c-MET [2])	DC50 (c-MET [3])	IC50 (SNU-638; Homo sapiens)	further results
3-((3-fluoro-4-(4-(2-(4-(4-(4-(2-(2-((S)-2-((5-(1-methyl-1H-pyrazole-4-yl)-1H-[1,2,3]triazolo[4,5-b]pyrazine-1-yl)methyl)morpholino)pyrimidine-5-yl)benzyl)piperazine-1-il)acetyl)piperazine-1-il)phenyl)amino)piperidine-2,6-dione [ICT-0001379]	< 100 nM	< 100 nM			IC50 (SNU-638): < 100 nM; IC50 (EBC-1): < 100 nM
Cc1nn(C2CCC(=O)NC2=O)c(=O)c2ccc(N3CCN(c4ccc(NC(=O)CN5CCC(COc6cnc(-c7cccc(Cn8nc(-c9cccc(C#N)c9)ccc8=O)c7)nc6)CC5)cc4)CC3)cc12 (stereo not drawn) [ICT-0001207]	< 100 nM	< 100 nM	< 100 nM		DC50 (c-MET [4]): < 100 nM
Cc1nn(C2CCC(=O)NC2=O)c(=O)c2cc(N3CCN(CCC(=O)N4CCC(COc5cnc(-c6cccc(Cn7nc(-c8cccc(C#N)c8)ccc7=O)c6)nc5)CC4)CC3)ccc12 (stereo not drawn) [ICT-0001215]	< 100 nM	< 100 nM	< 100 nM	< 100 nM	IC50 (MKN-45): < 100 nM; IC50 (EBC-1; Homo sapiens): < 100 nM
Cc1nn(C2CCC(=O)NC2=O)c(=O)c2ccc(N3CCN(CC4CCN(CC(=O)N5CCC(COc6cnc(-c7cccc(Cn8nc(-c9cccc(C#N)c9)ccc8=O)c7)nc6)CC5)CC4)CC3)cc12 (stereo not drawn) [ICT-0001272]			< 100 nM		IC50 (MKN-45): < 100 nM
Cc1nn(C2CCC(=O)NC2=O)c(=O)c2ccc(N3CCN(CCN4CCC(COc5cnc(-c6cccc(Cn7nc(-c8cccc(C#N)c8)ccc7=O)c6)nc5)CC4)CC3)cc12 (stereo not drawn) [ICT-0001277, 3-(1-{[3-(5-{[1-(2-{4-[2-(2,6-dioxopiperidin-3-yl)-4-methyl-1-oxo-1,2-dihydrophthalazine-6-yl]piperazine-1-yl}ethyl)piperidine-4-il]methoxy}pyrimidine-2-yl)phenyl]methyl}6-oxo-1,6-dihydropyridazine-3-yl)benzonitrile]	< 100 nM	< 100 nM	< 100 nM		DC50 (c-MET [4]): < 100 nM
N#Cc1cccc(-c2ccc(=O)n(Cc3cccc(-c4ncc(OCC5CCN(CCCCCc6ccc7c(=O)n(C8CCC(=O)NC8=O)ncc7c6)CC5)cn4)c3)n2)c1 (stereo not drawn) [ICT-0001304]				< 100 nM	
N#Cc1cccc(-c2ccc(=O)n(Cc3cccc(-c4ncc(OCC5CCN(CCOCCOCCOCC#Cc6cccc7c(=O)n(C8CCC(=O)NC8=O)ncc67)CC5)cn4)c3)n2)c1 (stereo not drawn) [ICT-0001307]				< 100 nM	
Cc1nn(C2CCC(=O)NC2=O)c(=O)c2ccc(N3CCN(C4CCN(CCN5CCC(COc6cnc(-c7cccc(Cn8nc(-c9cccc(C#N)c9)ccc8=O)c7)nc6)CC5)CC4)CC3)cc12 (stereo not drawn) [ICT-0001317]				< 100 nM	
Cc1nn(C2CCC(=O)NC2=O)c(=O)c2cc(F)c(N3CCN(CC4CCN(CCN5CCC(COc6cnc(-c7cccc(Cn8nc(-c9cccc(C#N)c9)ccc8=O)c7)nc6)CC5)CC4)CC3)cc12 (stereo not drawn) [ICT-0001318]				< 100 nM	
Cc1nn(C2CCC(=O)NC2=O)c(=O)c2cc(N3CCN(CC4CCN(CCN5CCC(COc6cnc(-c7cccc(Cn8nc(-c9cccc(C#N)c9)ccc8=O)c7)nc6)CC5)CC4)CC3)ccc12 (stereo not drawn) [ICT-0001321]				< 100 nM	
N#Cc1cccc(-c2ccc(=O)n(Cc3cccc(-c4ncc(OCC5CCN(Cc6cn(C7CCC(=O)NC7=O)nn6)CC5)cn4)c3)n2)c1 (stereo not drawn) [ICT-0001384, 3-{1-[(3-{5-[(1-{[1-(2,6-dioxopiperidine-3-yl)-1H-1,2,3-triazole-4-yl]methyl}piperidine-4-il)methoxy]pyrimidine-2-yl}phenyl)methyl]-6-oxo-1,6-dihydropyridazine-3-yl}benzonitrile]	< 100 nM	> 1000 nM		100 to 1000 nM	IC50 (EBC-1; Homo sapiens): < 100 nM
N#Cc1cccc(-c2ccc(=O)n(Cc3cccc(-c4ncc(N5CCN(CC6CCN(c7ccc(NC8CCC(=O)NC8=O)cc7F)CC6)CC5)cn4)c3)n2)c1 (stereo not drawn) [ICT-0001402]	< 100 nM	< 100 nM			DC50 (c-MET [4]): < 100 nM
N#Cc1cccc(-c2ccc(=O)n(Cc3cccc(-c4ncc(OCC5CCN(CC(=O)N6CCN(c7ccc(NC8CCC(=O)NC8=O)c(F)c7)CC6)CC5)cn4)c3)n2)c1 (stereo not drawn) [ICT-0001437, 3-(1-(3-(5-((1-(1-(2-(4-((2,6-dioxopiperidine-3-yl)amino)-3-fluorophenyl)piperazine-1-yl)-2-oxoethyl)piperidine-4-yl)methoxy)pyrimidine-2-yl)benzyl)6-oxo-1,6-dihydropyridazine-3-yl)benzonitrile]	< 100 nM	< 100 nM		< 100 nM	IC50 (EBC-1; Homo sapiens): < 100 nM
